Experimental data reported in ChEMBL document CHEMBL1124587 (J Med Chem, 1989).

Key:
[1] = Partition coefficient (logD); settings: octanol/water
[2] = target: Glycine receptor (Rattus norvegicus); assay: Inhibition of binding of [3H]strychnine to glycine receptor
[3] = Inhibition of binding of [3H]strychnine to glycine receptor in rat

| logP [1] | Compound | other results |
| --- | --- | --- |
| 1.07 | Oc1coc2cc[nH]c12 | – |
| 0.33 | Oc1coc2[nH]cnc12 | – |
| 0.85 | COc1ccc(-c2[nH]nc(O)c2N)cc1 | – |

The next lines start with the compound.

| Compound | logP [1] | other results |
| --- | --- | --- |
| Nc1c(C(F)(F)F)n[nH]c1O | – | IC50 [2]: 418 µM |
| NCC(=O)O [GLYCINE] | – | IC50 [3]: 6 µM |
| Nc1ccccc1O [QUESTIOMYCIN B] | 0.65 | – |
| CNCC(=O)O [SARCOSINE] | – | IC50 [3]: 350 µM |
